Values of other authors as cited in patent US20050209250A1, “Therapeutic combinations of atypical antipsychotics with corticotropin releasing factor antagonists” (Pfizer Inc, priority 2004, published 2005).

Tests used:
[1] = not given; remark: listed apart in the source

protein binding: extensive | half-life ([1]; in vivo): 6 to 7 h | Oral bioavailability ([1]; taken with food): approximately 60%
SMILES: Cl.O.O=C1Cc2cc(CCN3CCN(c4nsc5ccccc45)CC3)c(Cl)cc2N1 [ziprasidone, 5-[2-[4-(1,2-benzisothiazol-3-yl)piperazin-1-yl]ethyl]-6-chloroindolin-2-one hydrochloride hydrate]
